In PubChem BioAssay (NCI):
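GI50 is the concentration that inhibits growth by half. TGI is the concentration that stops growth completely.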

Assays:
Experiment in all cases: growth of human tumour cells (NCI), 384-well format; in the data active means GI50 below about 0.43 µM; inactive means the rest
786-0 renal = tested on: 786-0 renal
A498 renal = tested on: A498 renal
A549 NSCLC = tested on: A549 NSCLC
ACHN renal = tested on: ACHN renal
BT-549 breast = tested on: BT-549 breast
CAKI-1 renal = tested on: CAKI-1 renal
CCRF-CEM leukemia = tested on: CCRF-CEM leukemia
COLO 205 colon = tested on: COLO 205 colon
DU-145 prostate = tested on: DU-145 prostate
EKVX NSCLC = tested on: EKVX NSCLC
HCC-2998 colon = tested on: HCC-2998 colon
HCT-116 colon = tested on: HCT-116 colon
HCT-15 colon = tested on: HCT-15 colon
HL-60(TB) leukemia = tested on: HL-60(TB) leukemia
HOP-62 NSCLC = tested on: HOP-62 NSCLC
HOP-92 NSCLC = tested on: HOP-92 NSCLC
HS 578T breast = tested on: HS 578T breast
HT29 colon = tested on: HT29 colon
IGROV1 ovarian = tested on: IGROV1 ovarian
K-562 leukemia = tested on: K-562 leukemia
KM12 colon = tested on: KM12 colon
LOX IMVI melanoma = tested on: LOX IMVI melanoma
M14 melanoma = tested on: M14 melanoma
MALME-3M melanoma = tested on: MALME-3M melanoma
MCF7 breast = tested on: MCF7 breast
MDA-MB-231 breast = tested on: MDA-MB-231 breast
MDA-MB-435 melanoma = tested on: MDA-MB-435 melanoma
MDA-MB-468 breast = tested on: MDA-MB-468 breast
MOLT-4 leukemia = tested on: MOLT-4 leukemia
NCI-H226 lung = tested on: NCI-H226 lung
NCI-H23 lung = tested on: NCI-H23 lung
NCI-H322M lung = tested on: NCI-H322M lung
NCI-H460 NSCLC = tested on: NCI-H460 NSCLC
NCI-H522 lung = tested on: NCI-H522 lung
NCI/ADR-RES ovarian = tested on: NCI/ADR-RES ovarian
OVCAR-3 ovarian = tested on: OVCAR-3 ovarian
OVCAR-4 ovarian = tested on: OVCAR-4 ovarian
OVCAR-5 ovarian = tested on: OVCAR-5 ovarian
OVCAR-8 ovarian = tested on: OVCAR-8 ovarian
PC-3 prostate = tested on: PC-3 prostate
RPMI-8226 leukemia = tested on: RPMI-8226 leukemia
RXF 393 renal = tested on: RXF 393 renal
SF-268 CNS = tested on: SF-268 CNS
SF-295 CNS = tested on: SF-295 CNS
SF-539 CNS = tested on: SF-539 CNS
SK-MEL-28 melanoma = tested on: SK-MEL-28 melanoma
SK-MEL-5 melanoma = tested on: SK-MEL-5 melanoma
SK-OV-3 ovarian = tested on: SK-OV-3 ovarian
SN12C renal = tested on: SN12C renal
SNB-19 CNS = tested on: SNB-19 CNS
SNB-75 CNS = tested on: SNB-75 CNS
SR leukemia = tested on: SR leukemia
SW-620 colon = tested on: SW-620 colon
T-47D breast = tested on: T-47D breast
TK-10 renal = tested on: TK-10 renal
U251 glioblastoma = tested on: U251 glioblastoma
UACC-257 melanoma = tested on: UACC-257 melanoma
UO-31 renal = tested on: UO-31 renal

O=C(Nc1cc(F)c(F)cc1C(=O)O)c1ccc(-n2ccnc2)nn1
inactive: GI50 ([…]-0 renal) > 100 µM | GI50 (A498 renal) > 100 µM | GI50 (A549 NSCLC) > 100 µM | GI50 (ACHN renal) > 100 µM | GI50 (BT-549 breast) > 100 µM | GI50 (CAKI-1 renal) > 100 µM | GI50 (CCRF-CEM leukemia) > 100 µM | GI50 (COLO 205 colon) > 100 µM | GI50 (DU-145 prostate) > 100 µM | GI50 (EKVX NSCLC) > 100 µM | GI50 (HCC-2998 colon) > 100 µM | GI50 (HCT-116 colon) > 100 µM | GI50 (HCT-15 colon) > 100 µM | GI50 (HL-60(TB) leukemia) > 100 µM | GI50 (HOP-62 NSCLC) > 100 µM | GI50 (HOP-92 NSCLC) > 100 µM | GI50 (HS 578T breast) > 100 µM | GI50 (HT29 colon) > 100 µM | GI50 (IGROV1 ovarian) > 100 µM | GI50 (K-562 leukemia) 50.6 µM | GI50 (KM12 colon) > 100 µM | GI50 (LOX IMVI melanoma) > 100 µM | GI50 (M14 melanoma) > 100 µM | GI50 (MALME-3M melanoma) > 100 µM | GI50 (MCF7 breast) > 100 µM | GI50 (MDA-MB-231 breast) > 100 µM | GI50 (MDA-MB-435 melanoma) > 100 µM | GI50 (MDA-MB-468 breast) 29.2 µM | GI50 (MOLT-4 leukemia) > 100 µM | GI50 (NCI-H226 lung) > 100 µM | GI50 (NCI-H23 lung) > 100 µM | GI50 (NCI-H322M lung) > 100 µM | GI50 (NCI-H460 NSCLC) > 100 µM | GI50 (NCI-H522 lung) 65.1 µM | GI50 (NCI/ADR-RES ovarian) > 100 µM | GI50 (OVCAR-3 ovarian) > 100 µM | GI50 (OVCAR-4 ovarian) > 100 µM | GI50 (OVCAR-5 ovarian) > 100 µM | GI50 (OVCAR-8 ovarian) > 100 µM | GI50 (PC-3 prostate) > 100 µM | GI50 (RPMI-8226 leukemia) > 100 µM | GI50 (RXF 393 renal) > 100 µM | GI50 (SF-268 CNS) > 100 µM | GI50 (SF-295 CNS) > 100 µM | GI50 (SF-539 CNS) > 100 µM | GI50 (SK-MEL-28 melanoma) > 100 µM | GI50 (SK-MEL-5 melanoma) 57.9 µM | GI50 (SK-OV-3 ovarian) > 100 µM | GI50 (SN12C renal) > 100 µM | GI50 (SNB-19 CNS) > 100 µM | GI50 (SNB-75 CNS) > 100 µM | GI50 (SR leukemia) 23.3 µM | GI50 (SW-620 colon) > 100 µM | GI50 (T-47D breast) > 100 µM | GI50 (TK-10 renal) > 100 µM | GI50 (U251 glioblastoma) > 100 µM | GI50 (UACC-257 melanoma) > 100 µM | GI50 (UO-31 renal) > 100 µM
49.7 µM: TGI (SR leukemia)
> 100 µM: TGI (786-0 renal) | TGI (A498 renal) | TGI (A549 NSCLC) | TGI (ACHN renal) | TGI (BT-549 breast) | TGI (CAKI-1 renal) | TGI (CCRF-CEM leukemia) | TGI (COLO 205 colon) | TGI (DU-145 prostate) | TGI (EKVX NSCLC) | TGI (HCC-2998 colon) | TGI (HCT-116 colon) | TGI (HCT-15 colon) | TGI (HL-60(TB) leukemia) | TGI (HOP-62 NSCLC) | TGI (HOP-92 NSCLC) | TGI (HS 578T breast) | TGI (HT29 colon) | TGI (IGROV1 ovarian) | TGI (K-562 leukemia) | TGI (KM12 colon) | TGI (LOX IMVI melanoma) | TGI (M14 melanoma) | TGI (MALME-3M melanoma) | TGI (MCF7 breast) | TGI (MDA-MB-231 breast) | TGI (MDA-MB-435 melanoma) | TGI (MDA-MB-468 breast) | TGI (MOLT-4 leukemia) | TGI (NCI-H226 lung) | TGI (NCI-H23 lung) | TGI (NCI-H322M lung) | TGI (NCI-H460 NSCLC) | TGI (NCI-H522 lung) | TGI (NCI/ADR-RES ovarian) | TGI (OVCAR-3 ovarian) | TGI (OVCAR-4 ovarian) | TGI (OVCAR-5 ovarian) | TGI (OVCAR-8 ovarian) | TGI (PC-3 prostate) | TGI (RPMI-8226 leukemia) | TGI (RXF 393 renal) | TGI (SF-268 CNS) | TGI (SF-295 CNS) | TGI (SF-539 CNS) | TGI (SK-MEL-28 melanoma) | TGI (SK-MEL-5 melanoma) | TGI (SK-OV-3 ovarian) | TGI (SN12C renal) | TGI (SNB-19 CNS) | TGI (SNB-75 CNS) | TGI (SW-620 colon) | TGI (T-47D breast) | TGI (TK-10 renal) | TGI (U251 glioblastoma) | TGI (UACC-257 melanoma) | TGI (UO-31 renal)
